Laboratory results reported in PMC9775652, “Concomitant Administration of Red Ginseng Extract with Lactic Acid Bacteria Increases the Plasma Concentration of Deglycosylated Ginsenosides in Healthy Human Subjects” (Biomolecules, 2022).

Target: T1, P-gp (Homo sapiens, UniProt P08183)
T1 construct: host or cells: LLC-PK1-P-gp cells (passage no. 25–28)
Experiment: Transport of ginsenosides in P-gp-overexpressing LLC-PK1-P-gp cells
Assay type: in vitro ADME

T1 sequence (P08183 whole entry): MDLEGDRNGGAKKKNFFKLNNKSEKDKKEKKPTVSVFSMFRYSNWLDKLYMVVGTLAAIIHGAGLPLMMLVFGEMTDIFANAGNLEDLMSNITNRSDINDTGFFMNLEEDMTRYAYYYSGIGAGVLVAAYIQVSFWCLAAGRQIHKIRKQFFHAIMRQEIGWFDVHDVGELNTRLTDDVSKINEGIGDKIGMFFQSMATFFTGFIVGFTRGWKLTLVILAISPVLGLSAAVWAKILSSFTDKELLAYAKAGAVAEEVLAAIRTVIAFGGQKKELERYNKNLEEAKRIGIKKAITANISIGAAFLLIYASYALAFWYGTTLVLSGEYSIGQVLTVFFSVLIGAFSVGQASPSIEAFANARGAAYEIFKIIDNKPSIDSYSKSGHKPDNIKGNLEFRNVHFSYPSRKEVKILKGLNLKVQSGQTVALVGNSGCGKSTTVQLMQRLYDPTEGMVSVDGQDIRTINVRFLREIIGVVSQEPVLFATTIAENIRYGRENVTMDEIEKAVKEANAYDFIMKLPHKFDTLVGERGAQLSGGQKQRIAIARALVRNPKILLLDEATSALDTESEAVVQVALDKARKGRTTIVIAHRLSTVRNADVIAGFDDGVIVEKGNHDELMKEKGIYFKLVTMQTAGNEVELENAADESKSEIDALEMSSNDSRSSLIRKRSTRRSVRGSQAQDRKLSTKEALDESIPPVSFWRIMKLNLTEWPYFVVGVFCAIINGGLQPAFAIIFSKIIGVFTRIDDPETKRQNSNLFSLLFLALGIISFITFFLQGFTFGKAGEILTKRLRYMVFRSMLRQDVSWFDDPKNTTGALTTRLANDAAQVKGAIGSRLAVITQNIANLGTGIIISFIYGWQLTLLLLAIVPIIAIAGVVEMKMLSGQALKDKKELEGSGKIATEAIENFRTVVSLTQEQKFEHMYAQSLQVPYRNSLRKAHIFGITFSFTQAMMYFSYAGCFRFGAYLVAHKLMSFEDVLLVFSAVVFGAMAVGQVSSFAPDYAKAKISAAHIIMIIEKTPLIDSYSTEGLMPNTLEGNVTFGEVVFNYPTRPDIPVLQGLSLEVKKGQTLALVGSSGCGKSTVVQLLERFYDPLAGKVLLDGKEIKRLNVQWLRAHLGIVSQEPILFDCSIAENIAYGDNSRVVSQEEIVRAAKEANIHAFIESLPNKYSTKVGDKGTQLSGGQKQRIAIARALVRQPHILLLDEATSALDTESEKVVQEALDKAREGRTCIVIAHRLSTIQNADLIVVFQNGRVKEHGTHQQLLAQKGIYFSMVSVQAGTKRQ

Compound: CC(C)=CCC[C@](C)(O)[C@H]1CC[C@]2(C)[C@@H]1[C@H](O)C[C@@H]1[C@@]3(C)CC[C@H](O[C@@H]4O[C@H](CO)[C@@H](O)[C@H](O)[C@H]4O)C(C)(C)[C@@H]3CC[C@]12C [GRh2, ginsenoside Rh2]
- CLint (intrinsic clearance) (P-gp-mediated B to A transport in LLC-PK1-P-gp cells): 502 µL/min
- efflux ratio at 20 μM (pig, LLC-PK1, LLC-PK1-P-gp cells, 20 μM, B to A Papp divided by A to B Papp, read-out: ER): 18
- Papp A→B at 20 μM (pig, LLC-PK1-P-gp cells, 20 μM, mean ± SD, n = 3, read-out: A to B permeability): 0.08 ± 0.01 ×10⁻⁶ cm/s
- Papp B→A at 20 μM (pig, LLC-PK1-P-gp cells, 20 μM, mean ± SD, n = 3, read-out: B to A permeability): 1.39 ± 0.13 ×10⁻⁶ cm/s
